Tests used:
Type in all cases: in vivo
[1] = tested on: ABUTH: Abutilon theophrasti; assay: Post-emergence herbicidal effect
Outline: (§1)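 Foliar post-emergence spray on one-leaf-stage plants raised in sandy loam in the greenhouse, using WP or EC formulations with 0.5% additive at a water rate of 600 l/ha; effect judged visually about 3 weeks on, 0% to 100% relative to untreated plants.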

SETVI: Setaria viridis [2] = assay: Post-emergence herbicidal effect
Outline: as §1

[3] = tested on: ALOMY: Alopecurus myosuroides; assay: Post-emergence herbicidal effect
Outline: as §1

PHBPU: Ipomoea purpurea [4] = assay: Post-emergence herbicidal effect
Outline: as §1

[5] = tested on: ECHCG: Echinochloa crus-galli; assay: Post-emergence herbicidal effect
Outline: as §1

[6] = tested on: POLCO: Polygonum convolvulus; assay: Post-emergence herbicidal effect
Outline: as §1

HORMU: Hordeum murinum [7] = assay: Post-emergence herbicidal effect
Outline: as §1

LOLRI: Lolium rigidum [8] = assay: Post-emergence herbicidal effect
Outline: as §1

[9] = tested on: ABUTH: Abutilon theophrasti; assay: Pre-emergence herbicidal effect
Outline: (§2)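 Scoring is visual, as percent effect compared with untreated controls, about 3 weeks after application to the soil covering freshly sown seeds. Compounds were delivered as aqueous WP or EC preparations with 0.5% additive, 600 l/ha spray volume.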

VIOTR: Viola tricolor [10] = assay: Pre-emergence herbicidal effect; conditions: dosage 320 g/ha
Outline: as §2

[11] = tested on: AMARE: Amaranthus retroflexus; assay: Pre-emergence herbicidal effect; conditions: pre-emergence
Outline: as §2

STEME: Stellaria media [12] = assay: Pre-emergence herbicidal effect; conditions: pre-emergence; dosage 320 g/ha
Outline: as §2

SETVI: Setaria viridis [13] = assay: Pre-emergence herbicidal effect; conditions: pre-emergence
Outline: as §2

[14] = tested on: ALOMY: Alopecurus myosuroides; assay: Pre-emergence herbicidal effect; conditions: pre-emergence
Outline: as §2

PHBPU: Ipomoea purpurea [15] = assay: Pre-emergence herbicidal effect
Outline: as §2

VERPE: Veronica persica [16] = assay: Pre-emergence herbicidal effect; conditions: dosage 320 g/ha
Outline: as §2

[17] = tested on: MATIN: Matricaria inodora; assay: Pre-emergence herbicidal effect; conditions: pre-emergence; dosage 320 g/ha
Outline: as §2

[18] = tested on: ECHCG: Echinochloa crus-galli; assay: Pre-emergence herbicidal effect; conditions: pre-emergence
Outline: as §2

[19] = tested on: POLCO: Polygonum convolvulus; assay: Pre-emergence herbicidal effect
Outline: as §2

HORMU: Hordeum murinum [20] = assay: Pre-emergence herbicidal effect; conditions: pre-emergence
Outline: as §2

AVEFA: Avena fatua [21] = assay: Pre-emergence herbicidal effect
Outline: as §2

LOLRI: Lolium rigidum [22] = assay: Pre-emergence herbicidal effect
Outline: as §2

VIOTR: Viola tricolor [23] = assay: Post-emergence herbicidal effect
Outline: as §1

[24] = tested on: AMARE: Amaranthus retroflexus; assay: Post-emergence herbicidal effect; conditions: dosage 320 g/ha
Outline: as §1

STEME: Stellaria media [25] = assay: Post-emergence herbicidal effect
Outline: as §1

VERPE: Veronica persica [26] = assay: Post-emergence herbicidal effect; conditions: dosage 320 g/ha
Outline: as §1

[27] = tested on: MATIN: Matricaria inodora; assay: Post-emergence herbicidal effect
Outline: as §1

CYPES = assay: Pre-emergence herbicidal effect
Outline: as §2

AVEFA: Avena fatua [28] = assay: Post-emergence herbicidal effect
Outline: as §1

SMILES: Cc1ccc2c(c1)[C@H](Nc1ncc([C@H](C)O)c(N)n1)[C@@H](C)C2 (racemic) [drawing 14, reference compound]
- Herbicidal action against ABUTH ([1]; dosage 80 g/ha): 10%
- Herbicidal action against ABUTH ([1]; dosage 320 g/ha): 60%
- Herbicidal action against SETVI (SETVI: Setaria viridis [2]; dosage 80 g/ha): 60%
- Herbicidal action against ALOMY ([3]; dosage 80 g/ha): 0%
- Herbicidal action against ALOMY ([3]; dosage 320 g/ha): 70%
- Herbicidal action against PHBPU (PHBPU: Ipomoea purpurea [4]; dosage 80 g/ha): 20%
- Herbicidal action against PHBPU (PHBPU: Ipomoea purpurea [4]; dosage 320 g/ha): 80%
- Herbicidal action against ECHCG ([5]; dosage 80 g/ha): 0%
- Herbicidal action against POLCO ([6]; dosage 80 g/ha): 60%
- Herbicidal action against POLCO ([6]; dosage 320 g/ha): 60%
- Herbicidal action against HORMU (HORMU: Hordeum murinum [7]; dosage 80 g/ha): 0%
- Herbicidal action against HORMU (HORMU: Hordeum murinum [7]; dosage 320 g/ha): 20%
- Herbicidal action against LOLRI (LOLRI: Lolium rigidum [8]; dosage 80 g/ha): 30%
- Herbicidal action against LOLRI (LOLRI: Lolium rigidum [8]; dosage 320 g/ha): 70%

SMILES: Cc1ccc2c(c1)[C@H](Nc1ncc(C(C)O)c(C)n1)[C@@H](C)C2 (stereo partly drawn) [Example 1.7, 1-(2-{[(1R,2S)-2,6-Dimethyl-2,3-dihydro-1H-inden-1-yl]amino}-4-methylpyrimidin-5-yl)ethanol]
- Herbicidal action against ABUTH ([9]; dosage 80 g/ha): 90%
- Herbicidal action against ABUTH ([9]; dosage 320 g/ha): 100%
- Herbicidal action against VIOTR (VIOTR: Viola tricolor [10]): 100%
- Herbicidal action against AMARE ([11]; dosage 320 g/ha): 100%
- Herbicidal action against STEME (STEME: Stellaria media [12]): 100%
- Herbicidal action against SETVI (SETVI: Setaria viridis [13]; dosage 320 g/ha): 100%
- Herbicidal action against ALOMY ([14]; dosage 320 g/ha): 100%
- Herbicidal action against PHBPU (PHBPU: Ipomoea purpurea [15]; dosage 80 g/ha): 80%
- Herbicidal action against PHBPU (PHBPU: Ipomoea purpurea [15]; dosage 320 g/ha): 80%
- Herbicidal action against VERPE (VERPE: Veronica persica [16]): 100%
- Herbicidal action against MATIN [17]: 100%
- Herbicidal action against ECHCG ([18]; dosage 320 g/ha): 100%
- Herbicidal action against POLCO ([19]; dosage 320 g/ha): 100%
- Herbicidal action against HORMU (HORMU: Hordeum murinum [20]; dosage 320 g/ha): 100%
- Herbicidal action against AVEFA (AVEFA: Avena fatua [21]; dosage 80 g/ha): 70%
- Herbicidal action against AVEFA (AVEFA: Avena fatua [21]; dosage 320 g/ha): 90%
- Herbicidal action against LOLRI (LOLRI: Lolium rigidum [22]; dosage 320 g/ha): 100%
- Herbicidal action against ABUTH ([1]; dosage 80 g/ha): 60%
- Herbicidal action against ABUTH ([1]; dosage 320 g/ha): 80%
- Herbicidal action against VIOTR (VIOTR: Viola tricolor [23]; dosage 320 g/ha): 90%
- Herbicidal action against AMARE [24]: 100%
- Herbicidal action against STEME (STEME: Stellaria media [25]; dosage 320 g/ha): 100%
- Herbicidal action against SETVI (SETVI: Setaria viridis [2]; dosage 80 g/ha): 100%
- Herbicidal action against SETVI (SETVI: Setaria viridis [2]; dosage 320 g/ha): 100%
- Herbicidal action against ALOMY ([3]; dosage 80 g/ha): 80%
- Herbicidal action against ALOMY ([3]; dosage 320 g/ha): 100%
- Herbicidal action against PHBPU (PHBPU: Ipomoea purpurea [4]; dosage 80 g/ha): 60%
- Herbicidal action against PHBPU (PHBPU: Ipomoea purpurea [4]; dosage 320 g/ha): 100%
- Herbicidal action against VERPE (VERPE: Veronica persica [26]): 90%
- Herbicidal action against MATIN ([27]; dosage 320 g/ha): 90%
- Herbicidal action against ECHCG ([5]; dosage 80 g/ha): 20%
- Herbicidal action against ECHCG ([5]; dosage 320 g/ha): 100%
- Herbicidal action against POLCO ([6]; dosage 80 g/ha): 80%
- Herbicidal action against POLCO ([6]; dosage 320 g/ha): 80%
- Herbicidal action against HORMU (HORMU: Hordeum murinum [7]; dosage 80 g/ha): 40%
- Herbicidal action against HORMU (HORMU: Hordeum murinum [7]; dosage 320 g/ha): 100%
- Herbicidal action against LOLRI (LOLRI: Lolium rigidum [8]; dosage 80 g/ha): 100%
- Herbicidal action against LOLRI (LOLRI: Lolium rigidum [8]; dosage 320 g/ha): 100%

SMILES: Cc1ccc2c(c1)[C@H](Nc1ncc(C(C)(C)O)cn1)[C@@H](C)C2 [Example 1.4]
- Herbicidal action against ABUTH ([9]; dosage 80 g/ha): 100%
- Herbicidal action against ABUTH ([9]; dosage 320 g/ha): 100%
- Herbicidal action against VIOTR (VIOTR: Viola tricolor [10]): 100%
- Herbicidal action against AMARE ([11]; dosage 80 g/ha): 100%
- Herbicidal action against AMARE ([11]; dosage 320 g/ha): 100%
- Herbicidal action against CYPES (CYPES; dosage 80 g/ha): 80%
- Herbicidal action against CYPES (CYPES; dosage 320 g/ha): 100%
- Herbicidal action against STEME (STEME: Stellaria media [12]): 100%
- Herbicidal action against SETVI (SETVI: Setaria viridis [13]; dosage 80 g/ha): 100%
- Herbicidal action against SETVI (SETVI: Setaria viridis [13]; dosage 320 g/ha): 100%
- Herbicidal action against ALOMY ([14]; dosage 80 g/ha): 90%
- Herbicidal action against ALOMY ([14]; dosage 320 g/ha): 100%
- Herbicidal action against PHBPU (PHBPU: Ipomoea purpurea [15]; dosage 80 g/ha): 80%
- Herbicidal action against PHBPU (PHBPU: Ipomoea purpurea [15]; dosage 320 g/ha): 100%
- Herbicidal action against VERPE (VERPE: Veronica persica [16]): 100%
- Herbicidal action against MATIN [17]: 100%
- Herbicidal action against ECHCG ([18]; dosage 80 g/ha): 100%
- Herbicidal action against ECHCG ([18]; dosage 320 g/ha): 100%
- Herbicidal action against POLCO ([19]; dosage 80 g/ha): 100%
- Herbicidal action against POLCO ([19]; dosage 320 g/ha): 100%
- Herbicidal action against HORMU (HORMU: Hordeum murinum [20]; dosage 80 g/ha): 90%
- Herbicidal action against HORMU (HORMU: Hordeum murinum [20]; dosage 320 g/ha): 100%
- Herbicidal action against AVEFA (AVEFA: Avena fatua [21]; dosage 80 g/ha): 80%
- Herbicidal action against AVEFA (AVEFA: Avena fatua [21]; dosage 320 g/ha): 100%
- Herbicidal action against LOLRI (LOLRI: Lolium rigidum [22]; dosage 80 g/ha): 100%
- Herbicidal action against LOLRI (LOLRI: Lolium rigidum [22]; dosage 320 g/ha): 100%
- Herbicidal action against ABUTH ([1]; dosage 80 g/ha): 60%
- Herbicidal action against ABUTH ([1]; dosage 320 g/ha): 90%
- Herbicidal action against VIOTR (VIOTR: Viola tricolor [23]; dosage 80 g/ha): 90%
- Herbicidal action against AMARE [24]: 100%
- Herbicidal action against STEME (STEME: Stellaria media [25]; dosage 80 g/ha): 60%
- Herbicidal action against STEME (STEME: Stellaria media [25]; dosage 320 g/ha): 90%
- Herbicidal action against SETVI (SETVI: Setaria viridis [2]; dosage 320 g/ha): 80%
- Herbicidal action against ALOMY ([3]; dosage 80 g/ha): 20%
- Herbicidal action against ALOMY ([3]; dosage 320 g/ha): 70%
- Herbicidal action against PHBPU (PHBPU: Ipomoea purpurea [4]; dosage 320 g/ha): 100%
- Herbicidal action against MATIN ([27]; dosage 80 g/ha): 40%
- Herbicidal action against MATIN ([27]; dosage 320 g/ha): 80%
- Herbicidal action against ECHCG ([5]; dosage 80 g/ha): 30%
- Herbicidal action against ECHCG ([5]; dosage 320 g/ha): 90%
- Herbicidal action against POLCO ([6]; dosage 80 g/ha): 70%
- Herbicidal action against POLCO ([6]; dosage 320 g/ha): 90%
- Herbicidal action against AVEFA (AVEFA: Avena fatua [28]; dosage 80 g/ha): 20%
- Herbicidal action against AVEFA (AVEFA: Avena fatua [28]; dosage 320 g/ha): 50%
- Herbicidal action against LOLRI (LOLRI: Lolium rigidum [8]; dosage 80 g/ha): 60%
- Herbicidal action against LOLRI (LOLRI: Lolium rigidum [8]; dosage 320 g/ha): 90%

Source: US11477982B2, “2-amino-5-oxyalkyl-pyrimidine derivatives and their use for controlling undesired plant growth” (Bayer CropScience Aktiengesellschaft, priority 2017, dated 2022)
